Legend:
[1] = tested on: HBV; assay: HBV viremia in SCID>BNX chimeric mice transplanted with normal human liver fragments incubated ex-vivo with HBV-positive sera with hIL6
Experimental: A fragment of normal human liver from a patient with no indication of any HBV-related markers or disease, was incubated ex-vivo with a high titer HBV DNA-positive serum prior to transplantation under the kidney capsule of the chimeric animals. HBV DNA sequences were undetectable by PCR from two different genomic regions in any of these animals during the month following transplantation.
However, when liver tissue originating from the same patients was incubated ex-vivo with the above-mentioned HBV DNA-positive sera together with hIL6, HBV DNA sequences were detected from day 16 to day 31, in sera of about 50% of the transplanted animals.
Pre-exposure of liver tissue to hIL6 prior to incubation with HBV ex-vivo, increased infection to about 90% of the animals. […]
The 50 μl PCR reaction volume contained 10 pmole of each oligonucleotide primer in reaction buffer (10 mM Tris-HCl, pH 8.3, 50 mM KCl, 2.0 mM MgCl2, 0.01 % (w/v) gelatin, 250 μM of dATP, dGTP, dCTP, dTTP and 0.5 u of Taq polymerase. The reaction mixtures were overlaid with 30 μl of mineral oil. PCR cycles included 94° C. for 1 min., 55° C. for 1 min. and 72° C. for 3 min., 35 repeated cycles. 10 μl of reaction mixture was analyzed on a 2% agarose gel. Oligonucleotides used for the pre-core/core amplification were: […]

[2] = tested on: HBV; assay: HBV-DNA by PCR in sera of chimeric mice after intrasplenic injection of HepG2-derived cell lines incubated with HBV with or without hIL6; type: in vivo, SCID>BNX chimeric mice; conditions: HepG2-hIL6R cells incubated with HBV in the presence of hIL6
Experimental: Following incubation, the various mixtures were injected intrasplenically to the chimeric mice to generate HCC foci in the liver, as shown in FIG. 4.
All cell lines grew in T25 flasks supplemented with DMEM medium, enriched with 10% fetal bovine serum. For infection experiments, cells were trypsinized and washed twice with PBS, followed by incubation with HBV-positive human sera ([…]) in the presence or absence of hIL6 (500 ng/ml) in 1-2 ml of DMEM. After 2-4 h incubation at 37° C., 4×10^6 cells/ml, 0.5 ml/mouse were injected intrasplenically to 8-10 SCID>BNX mice in each group. Animals were splenectomized following the injection.
Mice were bled at two weekly intervals for 3 months, and DNA was extracted from 100 μl sera. The DNA was subjected to PCR amplification. The DNA extraction and the PCR method applied are described in the legend of FIG. 3.

[3] = tested on: HBV; assay: HBV infection of human hepatocellular carcinoma cell line HuH7; type: cell-based; conditions: hIL-6 500 ng/ml
Experimental: HBV infection protocol of human hepatocellular carcinoma cell line HuH7: Human sera were screened for the presence of HBV DNA sequences. Positive sera were analyzed quantitatively for viral particle concentration, as described by A. Klein, J. Clin. Microb., vol. 35, pp. 1897-1899 […]. Sera containing over 108 particles per ml were selected for infection experiments. The infection experiments included the following groups: Group 1—Cells were incubated with HBV without the addition of hIL-6 in the presence of polybrene 2 mg/ml, for 90 min at 37° C., in a 5% CO2 shaking incubator, in a total volume of 1.5 to 2 ml. Group 2—Cells were incubated with 1 ml of HBV positive serum, in the presence of hIL-6 (500 ng/ml) and polybrene 2 mg/ml, for 90 min at 37° C., in a 5% CO2 incubator, in a total volume of 1.5 to 2 ml. Group 3—Cells were incubated with 1 ml of HBV positive serum, in the presence of the cytokine hyper-IL-6 (HIL-6), 1.5 mg/ml, and polybrene 2 mg/ml, for 90 min at 37° C., in a 5% CO2 shaking incubator, in a total volume of 1.5 to 2 ml. The preparation of the cytokine hyper-IL-6 (HIL-6) is described in M. Fischer, et al., Nat. Biotechnol., vol. 15, pp. 142-145 (1997); T. Rakemann et al., J. Biol. Chem., vol. 274, pp. 1257-1266 (1999); P. Schirmacher et al., Am. J. Pathol., vol. 153, pp. 639-648 (1998). […]

**Q.** For hIL6: human interleukin 6, which “transplanted animals with HBV DNA sequences detected in sera” value ([1]; liver tissue incubated ex-vivo with HBV DNA-positive sera together with hIL6 (500 ng/ml), day 16 to day 31) is on record?
**A.** about 50%

**Q.** What about the animals infected ([1]; pre-exposure of liver tissue to hIL6 prior to incubation with HBV ex-vivo) of the same substance?
**A.** about 90%

**Q.** And the “time after transplantation at which HBV-DNA sequences could be detected in serum” value [2]?
**A.** 13 days

**Q.** What about the “HBV infection of HuH7 cells” value [3] of the same substance?
**A.** enhanced

Reference: patent US6410009B1, “Pharmaceutical composition for treating hepatitis B virus (HBV) infection” (Hadasit Medical Research Services & Development Co., Ltd., priority 1997, dated 2002)
